# In ChEMBL document CHEMBL2074080, “Enhanced drug-induced apoptosis associated with P-glycoprotein overexpression is specific to antimicrotubule agents” (Pharm Res, 2003):
# Target: ATP-dependent translocase ABCB1 (Homo sapiens, UniProt P08183)
# Test: TP_TRANSPORTER: drug resistance in MDR1-expressing MCF7 cells
# Assay type: functional, cell-based
# Sequence of ATP-dependent translocase ABCB1 (P08183 whole entry): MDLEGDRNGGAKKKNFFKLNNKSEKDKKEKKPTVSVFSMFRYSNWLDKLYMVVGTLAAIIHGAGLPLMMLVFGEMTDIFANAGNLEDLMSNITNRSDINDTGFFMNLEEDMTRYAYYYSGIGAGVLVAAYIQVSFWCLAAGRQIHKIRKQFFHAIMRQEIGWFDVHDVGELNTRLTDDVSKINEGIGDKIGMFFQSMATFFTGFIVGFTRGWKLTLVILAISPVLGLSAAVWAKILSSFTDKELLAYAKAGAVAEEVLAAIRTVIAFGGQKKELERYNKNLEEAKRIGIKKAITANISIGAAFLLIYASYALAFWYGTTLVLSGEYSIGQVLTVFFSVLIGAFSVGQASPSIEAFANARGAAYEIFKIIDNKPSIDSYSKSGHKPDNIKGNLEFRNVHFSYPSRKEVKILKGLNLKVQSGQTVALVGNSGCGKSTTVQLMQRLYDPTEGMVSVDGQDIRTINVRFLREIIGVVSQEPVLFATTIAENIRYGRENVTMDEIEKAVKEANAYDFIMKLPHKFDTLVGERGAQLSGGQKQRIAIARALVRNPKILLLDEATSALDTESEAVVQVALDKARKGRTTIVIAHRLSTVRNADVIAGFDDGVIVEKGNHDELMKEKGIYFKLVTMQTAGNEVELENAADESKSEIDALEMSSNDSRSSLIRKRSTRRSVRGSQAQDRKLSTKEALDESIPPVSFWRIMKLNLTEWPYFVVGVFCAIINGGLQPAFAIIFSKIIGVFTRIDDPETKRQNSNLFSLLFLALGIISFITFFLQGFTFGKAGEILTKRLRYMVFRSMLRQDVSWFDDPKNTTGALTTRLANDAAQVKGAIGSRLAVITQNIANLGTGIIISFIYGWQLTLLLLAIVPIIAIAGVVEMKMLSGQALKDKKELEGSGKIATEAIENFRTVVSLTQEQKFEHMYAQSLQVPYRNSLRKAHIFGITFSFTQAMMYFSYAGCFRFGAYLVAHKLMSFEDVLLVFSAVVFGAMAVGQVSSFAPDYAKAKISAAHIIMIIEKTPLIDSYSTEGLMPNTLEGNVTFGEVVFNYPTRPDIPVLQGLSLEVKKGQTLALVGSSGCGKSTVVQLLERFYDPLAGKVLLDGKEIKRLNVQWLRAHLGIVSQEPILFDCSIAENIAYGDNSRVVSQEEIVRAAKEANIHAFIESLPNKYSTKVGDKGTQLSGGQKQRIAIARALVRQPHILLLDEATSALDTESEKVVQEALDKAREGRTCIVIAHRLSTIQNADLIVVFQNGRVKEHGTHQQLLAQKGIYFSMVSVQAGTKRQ
row,Activity,Molecule
1,substrate [+],CC(=O)O[C@H]1C(=O)[C@@]2(C)[C@H]([C@H](OC(=O)c3ccccc3)[C@]3(O)C[C@H](OC(=O)[C@H](O)[C@@H](NC(=O)c4ccccc4)c4ccccc4)C(C)=C1C3(C)C)[C@]1(OC(C)=O)CO[C@@H]1C[C@@H]2O [PACLITAXEL]
2,is not a substrate [-],CISPLATIN
3,is not a substrate [-],O=c1[nH]c(=O)n([C@@H]2O[C@H](CO)[C@@H](O)[C@H]2O)cc1F [5-FLUOROURIDINE]
4,substrate [+],COc1cccc2c1C(=O)c1c(O)c3c(c(O)c1C2=O)C[C@@](O)(C(=O)CO)C[C@@H]3O[C@H]1C[C@H](N)[C@H](O)[C@H](C)O1 [DOXORUBICIN]
5,substrate [+],CC[C@]1(O)C[C@H]2CN(CCc3c([nH]c4ccccc34)[C@@](C(=O)OC)(c3cc4c(cc3OC)N(C=O)[C@H]3[C@@](O)(C(=O)OC)[C@H](OC(C)=O)[C@]5(CC)C=CCN6CC[C@]43[C@@H]65)C2)C1 [VINCRISTINE]

row,Molecule,Activity
1,CC[C@@]1(O)C(=O)OCc2c1cc1n(c2=O)Cc2cc3ccccc3nc2-1 [CAMPTOTHECIN],is not a substrate [-]
